These results are taken from paper PMC10498722 (Chemical Science, 2023).

Assay [1] concerns the target T1, glutathione peroxidase 4 (GPX4) (Homo sapiens, UniProt P36969).
T1 sequence (P36969 28-197): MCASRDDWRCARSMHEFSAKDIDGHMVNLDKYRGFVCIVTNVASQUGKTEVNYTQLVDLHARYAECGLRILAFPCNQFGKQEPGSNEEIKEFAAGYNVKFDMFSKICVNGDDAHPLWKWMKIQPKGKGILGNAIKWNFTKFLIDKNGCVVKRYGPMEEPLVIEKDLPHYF
As to the kind of experiment: GPX4 assay kit. It counts as biochemical. The following applies: read-out: % enhancement at 100 μM.

In assay [2] the target is T1, glutathione peroxidase 4 (GPX4). Briefly: GPX4 inhibitor screening assay kit. The assay is classed as biochemical.

For `O=C(OC[C@H]1O[C@@H](OC(=O)c2cc(O)c(O)c(OC(=O)c3cc(O)c(O)c(O)c3)c2)[C@H](OC(=O)c2cc(O)c(O)c(OC(=O)c3cc(O)c(O)c(O)c3)c2)[C@@H](OC(=O)c2cc(O)c(O)c(OC(=O)c3cc(O)c(O)c(O)c3)c2)[C@@H]1OC(=O)c1cc(O)c(O)c(OC(=O)c2cc(O)c(O)c(O)c2)c1)c1cc(O)c(O)c(OC(=O)c2cc(O)c(O)c(O)c2)c1` [TA, tannic acid], the activation at 100 µM in assay [1] was 19%.
For `COC(=O)c1ccc([C@H]2c3[nH]c4ccccc4c3C[C@H](C(=O)OC)N2C(=O)CCl)cc1` [RSL3], in assay [2], the concentration for half-maximal inhibition (IC50) (as a rule, the concentration at which inhibition is half-maximal) is 17.17 ± 0.17 µM.
